Experimental data reported in patent US12685309B2, “Agrochemical formulations” (BASF CORPORATION, priority 2020, dated 2026).

Conditions: for Appearance of mixture with water (solubility): 400 g mixed with water and stirred, 400 g/l mixture
From the text: 400 g of Dicamba with the 93.8 wt % purity as defined above in the experimental part were mixed with water and stirred to obtain a 400 g/l mixture of dicamba.
400 g of dicamba with a purity of 98 wt % were mixed with water.

Row | Structure (SMILES) | Appearance of mixture with water (solubility) | Stability of the aqueous mixture on storage (400 g/l mixture in water, room temperature, two weeks)
1 | COc1c(Cl)ccc(Cl)c1C(=O)[O-].[K+] [Dicamba with the 93.8 wt % purity, potassium dicamba] | turbid mixture | serum formation and sedimentation of the undissolved components
2 | COc1c(Cl)ccc(Cl)c1C(=O)O [dicamba with a purity of 98 wt %, 3,6-dichloro-2-methoxybenzoic acid] | clear solution | 
